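Growth conditions: 96-well plates. Treatment: test compound, 48 hours, 5 concentrations. Analysis: linear interpolation between bracketing concentrations; unreached endpoints set to highest concentration. Here, GI50 denotes the concentration required for 50% inhibition of growth.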 Active and inactive are the calls of the source. Rule as the data show it: active = GI50 up to about 1.1 µM and inactive = higher.
What was measured:
Assay in all cases: DTP human tumour cell line panel, 48 h
UACC-257 = system: UACC-257
OVCAR-8 = system: OVCAR-8
PC-3 = system: PC-3
SN12C = system: SN12C
SF-539 = system: SF-539
SW-620 = system: SW-620
KM12 = system: KM12
M14 = system: M14
Hs-578T = system: Hs-578T
SR = system: SR
SK-OV-3 = system: SK-OV-3
NCI-H522 = system: NCI-H522
NCI-H226 = system: NCI-H226
SNB-19 = system: SNB-19
U-251 = system: U-251
MDA-MB-435 = system: MDA-MB-435
NCI-H460 = system: NCI-H460
TK-10 = system: TK-10
HCT-116 = system: HCT-116
UACC-62 = system: UACC-62
UO-31 = system: UO-31
OVCAR-5 = system: OVCAR-5
HT-29 = system: HT-29
SNB-75 = system: SNB-75
HCC 2998 = system: HCC 2998
A549 = system: A549
IGROV-1 = system: IGROV-1
Malme-3M = system: Malme-3M
LOX IMVI = system: LOX IMVI
MOLT-4 = system: MOLT-4
OVCAR-3 = system: OVCAR-3
K562 = system: K562
EKVX = system: EKVX
DU-145 = system: DU-145
RXF 393 = system: RXF 393
BT-549 = system: BT-549
786-0 = system: 786-0
SF-268 = system: SF-268
SK-MEL-2 = system: SK-MEL-2
NCI/ADR-RES = system: NCI/ADR-RES
HCT-15 = system: HCT-15
MCF7 = system: MCF7
HL-60 = system: HL-60
CCRF-CEM = system: CCRF-CEM
ACHN = system: ACHN
SF-295 = system: SF-295
HOP-92 = system: HOP-92
NCI-H23 = system: NCI-H23
OVCAR-4 = system: OVCAR-4
T47D = system: T47D
CAKI-1 = system: CAKI-1
MDA-N = system: MDA-N
MDA-MB-231 = system: MDA-MB-231
SK-MEL-28 = system: SK-MEL-28
A498 = system: A498
COLO 205 = system: COLO 205
RPMI-8226 = system: RPMI-8226
HOP-62 = system: HOP-62
SK-MEL-5 = system: SK-MEL-5

Measured: GI50

Cc1cn(C2CC(ON3C(=O)c4ccccc4C3=O)C(CO)O2)c(=O)[nH]c1=O (stereo not drawn)
inactive: UACC-257 > 10 µM | OVCAR-8 > 10 µM | PC-3 > 10 µM | SN12C > 10 µM | SF-539 > 10 µM | SW-620 > 10 µM | KM12 > 10 µM | M14 > 10 µM | Hs-578T > 10 µM | SR > 10 µM | SK-OV-3 > 10 µM | NCI-H522 > 10 µM | NCI-H226 > 10 µM | SNB-19 > 10 µM | U-251 > 10 µM | MDA-MB-435 > 10 µM | NCI-H460 > 10 µM | TK-10 > 10 µM | HCT-116 > 10 µM | UACC-62 > 10 µM | UO-31 > 10 µM | OVCAR-5 > 10 µM | HT-29 > 10 µM | SNB-75 > 10 µM | HCC 2998 > 10 µM | A549 > 10 µM | IGROV-1 > 10 µM | Malme-3M > 10 µM | LOX IMVI > 10 µM | MOLT-4 > 10 µM | OVCAR-3 > 10 µM | K562 > 10 µM | EKVX > 10 µM | DU-145 > 10 µM | RXF 393 > 10 µM | BT-549 > 10 µM | 786-0 > 10 µM | SF-268 > 10 µM | SK-MEL-2 > 10 µM | NCI/ADR-RES > 10 µM | MCF7 > 10 µM | HL-60 > 10 µM | CCRF-CEM > 10 µM | ACHN > 10 µM | SF-295 > 10 µM | NCI-H23 > 10 µM | OVCAR-4 > 10 µM
> 10 µM: HCT-15
active: HOP-92 0.855 µM

CCOC(=O)c1sc2nc(SC)nc(Nc3ccc4c(c3)OCCO4)c2c1N
inactive: UACC-257 21.7 µM | T47D 6.34 µM | OVCAR-8 5.12 µM | PC-3 13.2 µM | CAKI-1 22.9 µM | SN12C 8.49 µM | SF-539 7.52 µM | SW-620 19.5 µM | MDA-N 10.4 µM | KM12 44.6 µM | M14 11 µM | SR 20.5 µM | NCI-H522 6.76 µM | NCI-H226 3.33 µM | SNB-19 17.6 µM | U-251 5.87 µM | MDA-MB-435 18 µM | MDA-MB-231 11.1 µM | NCI-H460 17.5 µM | TK-10 15.2 µM | HCT-116 6.3 µM | UACC-62 11.4 µM | UO-31 15 µM | OVCAR-5 17.1 µM | HT-29 21 µM | HCC 2998 25.7 µM | A549 10 µM | IGROV-1 29.9 µM | Malme-3M 12 µM | LOX IMVI 30.6 µM | MOLT-4 8.05 µM | OVCAR-3 13.5 µM | K562 20.6 µM | SK-MEL-28 > 100 µM | A498 11.9 µM | EKVX 9.59 µM | DU-145 14.1 µM | RXF 393 3.93 µM | BT-549 16 µM | SF-268 4.69 µM | COLO 205 5.45 µM | SK-MEL-2 15 µM | RPMI-8226 12.6 µM | NCI/ADR-RES 21.6 µM | MCF7 10.5 µM | HL-60 > 100 µM | CCRF-CEM 16.9 µM | ACHN 7.28 µM | HOP-62 11.8 µM | SF-295 42.3 µM | SK-MEL-5 7.53 µM | HOP-92 13.1 µM | NCI-H23 14.2 µM | OVCAR-4 10.7 µM

CC1(C)OC(=O)C(C#N)=C1C[n+]1ccccc1
inactive: UACC-257 > 10 µM | T47D > 10 µM | OVCAR-8 > 10 µM | PC-3 > 10 µM | CAKI-1 > 10 µM | SN12C > 10 µM | SF-539 > 10 µM | SW-620 > 10 µM | MDA-N > 10 µM | KM12 > 10 µM | M14 > 10 µM | Hs-578T > 10 µM | SR > 10 µM | SK-OV-3 > 10 µM | NCI-H522 > 10 µM | NCI-H226 > 10 µM | SNB-19 > 10 µM | U-251 > 10 µM | MDA-MB-435 > 10 µM | MDA-MB-231 > 10 µM | NCI-H460 > 10 µM | TK-10 > 10 µM | UO-31 > 10 µM | OVCAR-5 > 10 µM | HT-29 > 10 µM | SNB-75 > 10 µM | HCC 2998 > 10 µM | IGROV-1 > 10 µM | Malme-3M > 10 µM | LOX IMVI > 10 µM | MOLT-4 > 10 µM | OVCAR-3 > 10 µM | K562 > 10 µM | SK-MEL-28 > 10 µM | A498 > 10 µM | EKVX > 10 µM | DU-145 > 10 µM | RXF 393 > 10 µM | 786-0 > 10 µM | SF-268 > 10 µM | COLO 205 > 10 µM | SK-MEL-2 > 10 µM | RPMI-8226 > 10 µM | NCI/ADR-RES > 10 µM | MCF7 > 10 µM | HL-60 > 10 µM | CCRF-CEM > 10 µM | ACHN > 10 µM | HOP-62 > 10 µM | SF-295 > 10 µM | SK-MEL-5 > 10 µM | HOP-92 > 10 µM | NCI-H23 > 10 µM | OVCAR-4 > 10 µM
> 10 µM: HCT-15

Source: ChEMBL document CHEMBL1201862, “PubChem BioAssay data set” (2004)
